# Results from patent US20100267561A1, “HERBICIDAL PYRIDAZINONE DERIVATIVES” (priority 2007, published 2010).
# Read-outs that look alike come from different tables or passages of the source.
# Tests used:
# Assay type in all cases: in vivo
# [1] = system: eastern black (E.B.) nightshade (Solanum ptycanthum); experiment: Test B pre-/postemergence plant response; conditions: Solanum, pre-emergence, Preemergence, read-out: Plant response rating, Nightshade, E. B.
# In short: (§1)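 Seeds were sown and sprayed preemergence, while plants at 2 to 18 cm (1- to 4-leaf stage) got postemergence sprays. Compounds were formulated in a non-phytotoxic solvent mixture with surfactant. After 13 to 15 days in a greenhouse, injury was rated visually against untreated controls, 0 (no effect) to 100 (complete control).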
# [2] = system: giant foxtail (Setaria faberii); experiment: Test B pre-/postemergence plant response; conditions: Setaria faberi, read-out: Plant response rating, Foxtail, Giant; for pest or weed control at 16 g/ha: 16 g ai/ha; for pest or weed control at 31 g/ha: 31 g ai/ha, 100 complete control; for pest or weed control at 62 g/ha: 62 g ai/ha; for pest or weed control at 125 g/ha: 125 g ai/ha
# In short: as §1
# corn (Zea mays) = experiment: Test B pre-/postemergence plant response; conditions: Zea mays; for Corn plant response rating (crop injury, 0 = no effect, 100 = complete kill) at 16 g/ha: 16 g ai/ha; for Corn plant response rating (crop injury, 0 = no effect, 100 = complete kill) at 31 g/ha: 31 g ai/ha, 100 complete control; for Corn plant response rating (crop injury, 0 = no effect, 100 = complete kill) at 62 g/ha: 62 g ai/ha; for Corn plant response rating (crop injury, 0 = no effect, 100 = complete kill) at 125 g/ha: 125 g ai/ha
# In short: as §1
# [3] = system: green foxtail (Setaria viridis); experiment: Test B pre-/postemergence plant response; conditions: Setaria viridis, read-out: Plant response rating, Foxtail, Green; for pest or weed control at 16 g/ha: 16 g ai/ha; for pest or weed control at 31 g/ha: 31 g ai/ha, 100 complete control; for pest or weed control at 62 g/ha: 62 g ai/ha; for pest or weed control at 125 g/ha: 125 g ai/ha
# In short: as §1
# [4] = system: downy bromegrass (Bromus tectorum); experiment: Test B pre-/postemergence plant response; conditions: Bromus tectorum, read-out: Plant response rating, Bromegrass, Downy; for pest or weed control at 16 g/ha: 16 g ai/ha; for pest or weed control at 31 g/ha: 31 g ai/ha, 100 complete control; for pest or weed control at 62 g/ha: 62 g ai/ha; for pest or weed control at 125 g/ha: 125 g ai/ha
# In short: as §1
# [5] = system: large crabgrass (Digitaria sanguinalis); experiment: Test B pre-/postemergence plant response; conditions: Digitaria sanguinalis, read-out: Plant response rating, Crabgrass, Large; for pest or weed control at 16 g/ha: 16 g ai/ha; for pest or weed control at 31 g/ha: 31 g ai/ha, 100 complete control; for pest or weed control at 62 g/ha: 62 g ai/ha; for pest or weed control at 125 g/ha: 125 g ai/ha
# In short: as §1
# [6] = system: pigweed (Amaranthus retroflexus); experiment: Test B pre-/postemergence plant response; conditions: Amaranthus retroflexus, post-emergence, Postemergence, read-out: Plant response rating, Pigweed
# In short: as §1
# [7] = system: woolly cupgrass (Eriochloa villosa); experiment: Test B pre-/postemergence plant response; conditions: Eriochloa villosa, read-out: Plant response rating, Cupgrass, Woolly; for pest or weed control at 16 g/ha: 16 g ai/ha; for pest or weed control at 31 g/ha: 31 g ai/ha, 100 complete control; for pest or weed control at 62 g/ha: 62 g ai/ha; for pest or weed control at 125 g/ha: 125 g ai/ha
# In short: as §1
# wild oat (Avena fatua) = experiment: Test B pre-/postemergence plant response; conditions: Avena fatua, read-out: Plant response rating, Oat, Wild; for pest or weed control at 16 g/ha: 16 g ai/ha; for pest or weed control at 31 g/ha: 31 g ai/ha, 100 complete control; for pest or weed control at 62 g/ha: 62 g ai/ha; for pest or weed control at 125 g/ha: 125 g ai/ha
# In short: as §1
# [8] = system: barnyardgrass (Echinochloa crus-galli); experiment: Test B flooded paddy test plant response; conditions: Echinochloa crus-galli, read-out: Plant response rating, Barnyardgrass
# In short: (§2)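 2-leaf plants; pots flooded 3 cm above soil; compound added to paddy water; depth maintained. Greenhouse 13–15 d. Visual rating vs controls, 0 (no effect) to 100 (complete control); dash = no result.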
# [9] = system: umbrella sedge (Cyperus difformis); experiment: Test B flooded paddy test plant response; conditions: Cyperus difformis, read-out: Plant response rating, Sedge, Umbrella
# In short: as §2
# rice (Oryza sativa) = experiment: Test B flooded paddy test plant response; conditions: Oryza sativa, read-out: Plant response rating, Rice
# In short: as §2
# [10] = system: ducksalad (Heteranthera limosa); experiment: Test B flooded paddy test plant response; conditions: Heteranthera limosa, read-out: Plant response rating, Ducksalad
# In short: as §2
# [11] = post-emergence, Postemergence, scale 0 to 100
# [12] = post-emergence, Postemergence, scale 0 to 100, 0 no effect
# [13] = pre-emergence, Preemergence, scale 0 to 100 (0 no effect, 100 complete control)
# [14] = pre-emergence, Preemergence, 0 to 100 scale, 0 no effect
# [15] = pre-emergence, Preemergence, scale 0 to 100
# [16] = Flood (flooded paddy test), 62 g ai/ha, scale 0 to 100, 0 no effect, 100 complete control
# [17] = Flood (flooded paddy test), 125 g ai/ha, scale 0 to 100, 0 no effect, 100 complete control
# [18] = Flood (flooded paddy test), 250 g ai/ha, scale 0 to 100, 0 no effect, 100 complete control
# [19] = Flood, 31 g ai/ha, scale 0 to 100
smiles,measurement,setting,value
"CCc1cc(-c2ccc(C(F)(F)F)cc2)nn1-c1c(O)cnn(C)c1=O [Compound 11, 4-[5-ethyl-3-[4-(trifluoromethyl)phenyl]-1H-pyrazol-1-yl]-5-hydroxy-2-methyl-3(2H)-pyridazinone]",pest or weed control at 31 g/ha,"[1]; 31 g ai/ha, 0 to 100 scale, 0 no effect, 100 complete control",0%
same,pest or weed control at 62 g/ha,"[1]; 62 g ai/ha, scale 0 to 100",0%
same,pest or weed control at 125 g/ha,"[1]; 125 g ai/ha, scale 0 to 100",0%
same,pest or weed control at 16 g/ha,[2]; [11],100%
same,pest or weed control at 31 g/ha,[2]; [12],100%
same,pest or weed control at 62 g/ha,[2]; [11],100%
same,pest or weed control at 125 g/ha,[2]; [11],100%
same,pest or weed control at 16 g/ha,[2]; [13],90%
same,pest or weed control at 31 g/ha,[2]; [14],90%
same,pest or weed control at 62 g/ha,[2]; [15],100%
same,pest or weed control at 125 g/ha,[2]; [15],100%
same,"Corn plant response rating (crop injury, 0 = no effect, 100 = complete kill) at 16 g/ha",corn (Zea mays); [11],100%
same,"Corn plant response rating (crop injury, 0 = no effect, 100 = complete kill) at 31 g/ha",corn (Zea mays); [12],100%
same,"Corn plant response rating (crop injury, 0 = no effect, 100 = complete kill) at 62 g/ha",corn (Zea mays); [11],100%
same,"Corn plant response rating (crop injury, 0 = no effect, 100 = complete kill) at 125 g/ha",corn (Zea mays); [11],100%
same,"Corn plant response rating (crop injury, 0 = no effect, 100 = complete kill) at 16 g/ha",corn (Zea mays); [13],70%
same,"Corn plant response rating (crop injury, 0 = no effect, 100 = complete kill) at 31 g/ha",corn (Zea mays); [14],85%
same,"Corn plant response rating (crop injury, 0 = no effect, 100 = complete kill) at 62 g/ha",corn (Zea mays); [15],95%
same,"Corn plant response rating (crop injury, 0 = no effect, 100 = complete kill) at 125 g/ha",corn (Zea mays); [15],100%
same,pest or weed control at 16 g/ha,[3]; [11],85%
same,pest or weed control at 31 g/ha,[3]; [12],100%
same,pest or weed control at 62 g/ha,[3]; [11],100%
same,pest or weed control at 125 g/ha,[3]; [11],100%
same,pest or weed control at 16 g/ha,[3]; [13],100%
same,pest or weed control at 31 g/ha,[3]; [14],100%
same,pest or weed control at 62 g/ha,[3]; [15],100%
same,pest or weed control at 125 g/ha,[3]; [15],100%
same,pest or weed control at 16 g/ha,[4]; [11],85%
same,pest or weed control at 31 g/ha,[4]; [12],90%
same,pest or weed control at 62 g/ha,[4]; [11],98%
same,pest or weed control at 125 g/ha,[4]; [11],100%
same,pest or weed control at 16 g/ha,[4]; [13],50%
same,pest or weed control at 31 g/ha,[4]; [14],95%
same,pest or weed control at 62 g/ha,[4]; [15],98%
same,pest or weed control at 125 g/ha,[4]; [15],100%
same,pest or weed control at 16 g/ha,[5]; [11],98%
same,pest or weed control at 31 g/ha,[5]; [12],100%
same,pest or weed control at 62 g/ha,[5]; [11],100%
same,pest or weed control at 125 g/ha,[5]; [11],100%
same,pest or weed control at 16 g/ha,[5]; [13],90%
same,pest or weed control at 31 g/ha,[5]; [14],90%
same,pest or weed control at 62 g/ha,[5]; [15],100%
same,pest or weed control at 125 g/ha,[5]; [15],100%
same,pest or weed control at 16 g/ha,"[6]; 16 g ai/ha, scale 0 to 100",0%
same,pest or weed control at 31 g/ha,"[6]; 31 g ai/ha, scale 0 to 100, 0 no effect, 100 complete control",0%
same,pest or weed control at 62 g/ha,"[6]; 62 g ai/ha, scale 0 to 100",0%
same,pest or weed control at 125 g/ha,"[6]; 125 g ai/ha, scale 0 to 100",5%
same,pest or weed control at 16 g/ha,[7]; [11],95%
same,pest or weed control at 31 g/ha,[7]; [12],100%
same,pest or weed control at 62 g/ha,[7]; [11],100%
same,pest or weed control at 125 g/ha,[7]; [11],100%
same,pest or weed control at 16 g/ha,[7]; [13],100%
same,pest or weed control at 31 g/ha,[7]; [14],100%
same,pest or weed control at 62 g/ha,[7]; [15],100%
same,pest or weed control at 125 g/ha,[7]; [15],100%
same,pest or weed control at 16 g/ha,wild oat (Avena fatua); [11],100%
same,pest or weed control at 31 g/ha,wild oat (Avena fatua); [12],100%
same,pest or weed control at 62 g/ha,wild oat (Avena fatua); [11],100%
same,pest or weed control at 125 g/ha,wild oat (Avena fatua); [11],100%
same,pest or weed control at 16 g/ha,wild oat (Avena fatua); [13],80%
same,pest or weed control at 31 g/ha,wild oat (Avena fatua); [14],98%
same,pest or weed control at 62 g/ha,wild oat (Avena fatua); [15],98%
same,pest or weed control at 125 g/ha,wild oat (Avena fatua); [15],100%
same,pest or weed control at 62 g/ha,[8]; [16],50%
same,pest or weed control at 125 g/ha,[8]; [17],65%
same,pest or weed control at 250 g/ha,[8]; [18],75%
same,pest or weed control at 31 g/ha,[8]; [19],40%
same,pest or weed control at 62 g/ha,[9]; [16],30%
same,pest or weed control at 125 g/ha,[9]; [17],40%
same,pest or weed control at 250 g/ha,[9]; [18],40%
same,pest or weed control at 31 g/ha,[9]; [19],30%
same,plant injury at 62 g/ha,rice (Oryza sativa); [16],30%
same,plant injury at 125 g/ha,rice (Oryza sativa); [17],60%
same,plant injury at 250 g/ha,rice (Oryza sativa); [18],70%
same,plant injury at 31 g/ha,rice (Oryza sativa); [19],0%
same,pest or weed control at 62 g/ha,[10]; [16],0%
same,pest or weed control at 125 g/ha,[10]; [17],0%
same,pest or weed control at 250 g/ha,[10]; [18],40%
same,pest or weed control at 31 g/ha,[10]; [19],0%
